Test systems include KM12 colon; SN12C renal; LOX IMVI melanoma; DU-145 prostate; RXF 393 renal; OVCAR-4 ovarian; MDA-MB-231 breast; SW-620 colon; K-562 leukemia; BT-549 breast.
What all share (assay): growth of human tumour cells (NCI), 48 h

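Compound exposure: 48 hours, 5 concentrations, 96-well plates. GI50: concentration for 50% inhibition of growth. Definition used: TGI = concentration required for complete inhibition of growth.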

On to `CC(=O)/C(=C/c1ccccc1)C(=O)CC(C)C`, for which the GI50 with KM12 colon is 2.25 µM; in the test on SN12C renal it was 14.3 µM; in the test with LOX IMVI melanoma, 1.85 µM; in the test on DU-145 prostate, 14.4 µM; in the test on RXF 393 renal, 16.4 µM; with OVCAR-4 ovarian, 17.6 µM. In addition, the GI50 in the test on MDA-MB-231 breast is 18.2 µM; in the test with SW-620 colon, 2.14 µM; in the test with K-562 leukemia, 3.77 µM; in the test on BT-549 breast, 14.9 µM. The TGI came to 5.01 µM in the test on KM12 colon; 39 µM in the test with SN12C renal; 4.02 µM in the test with LOX IMVI melanoma; 28 µM with DU-145 prostate; 30.5 µM in the test with RXF 393 renal; 41.4 µM in the test on OVCAR-4 ovarian. Moreover, the TGI with MDA-MB-231 breast is 41.1 µM; in the test with SW-620 colon, 4.63 µM; with K-562 leukemia it was more than 100 µM; with BT-549 breast it was 28.9 µM.

For the molecule `CCCCOC(=O)c1ccc(N)cc1`, the GI50 in the test with KM12 colon was 29.8 µM; in the test on SN12C renal, more than 100 µM; in the test with LOX IMVI melanoma, 30.8 µM; in the test on DU-145 prostate it was more than 100 µM; in the test on RXF 393 renal, more than 100 µM; with OVCAR-4 ovarian, more than 100 µM. The GI50 in the test on MDA-MB-231 breast was more than 100 µM; in the test with SW-620 colon, 64 µM; with K-562 leukemia, 6.66 µM; with BT-549 breast, 77.6 µM. The TGI in the test on KM12 colon, with SN12C renal, with LOX IMVI melanoma, in the test on DU-145 prostate, in the test on RXF 393 renal and in the test on OVCAR-4 ovarian was more than 100 µM throughout. Besides, the TGI in the test on MDA-MB-231 breast, in the test on SW-620 colon, in the test with K-562 leukemia and with BT-549 breast was more than 100 µM each time.

In the case of `O=C(O)[C@H](Cc1c[nH]c2ccccc12)N1C(=O)c2ccccc2C1=O`, the TGI in the test with KM12 colon, in the test on SN12C renal, in the test with LOX IMVI melanoma, in the test with DU-145 prostate, with RXF 393 renal and in the test on OVCAR-4 ovarian was more than 100 µM each time. The TGI in the test with MDA-MB-231 breast, with SW-620 colon, in the test with K-562 leukemia and in the test with BT-549 breast was more than 100 µM in each case. In addition, the GI50 in the test with K-562 leukemia was more than 100 µM.

For the molecule `O=S(=O)(CCN1CCOCC1)Nc1cc(-c2ccc3ncnc(Nc4ccc(F)c(Cl)c4)c3c2)cnc1Cl`, the GI50 in the test on KM12 colon is 2.64 µM; in the test with SN12C renal, 0.391 µM; in the test with LOX IMVI melanoma, 0.414 µM; in the test on DU-145 prostate, 0.869 µM; in the test on RXF 393 renal, 0.239 µM; with OVCAR-4 ovarian, 1.66 µM. The GI50 in the test with MDA-MB-231 breast is 1.09 µM; in the test with SW-620 colon, 1.3 µM; in the test with K-562 leukemia, 3.27 µM; in the test on BT-549 breast it was 0.254 µM. For the same molecule, the TGI in the test with KM12 colon is 24 µM; in the test on SN12C renal it was more than 100 µM; with LOX IMVI melanoma it was 3.15 µM; in the test with DU-145 prostate, 25.6 µM; with RXF 393 renal it was 1.35 µM; in the test with OVCAR-4 ovarian it was 22.5 µM. Further, the TGI in the test with MDA-MB-231 breast is 4.82 µM; with SW-620 colon, 15.8 µM; in the test with K-562 leukemia, more than 100 µM; in the test on BT-549 breast it was 2.59 µM.

As to `CC(C)N1CCN(c2ccncc2S(=O)(=O)N2CCCCC2)CC1`, the TGI in the test on KM12 colon, in the test on SN12C renal, with LOX IMVI melanoma, in the test with DU-145 prostate, with RXF 393 renal and in the test on OVCAR-4 ovarian was more than 100 µM throughout. For the same molecule, the TGI in the test with MDA-MB-231 breast, in the test with SW-620 colon, in the test on K-562 leukemia and in the test on BT-549 breast was more than 100 µM each time.

The record behind these values is PubChem BioAssay (NCI).
